Patent US11413278B2, “Compounds and methods for promoting stress resistance” (priority 2015, dated 2022)
Read-outs that look alike come from different tables or passages of the source.

Assays:
WI-38 cells [1] = assay: Propidium iodide (PI) cell-death imaging upon H2O2 stress; assay type: cell-based, human; conditions: for Assay 7: H2O2-resistant, at 10 uM, validated by propidium iodide (PI) cell-death imaging: w/H2O2, 3 hrs/4 hrs/5 hrs, YES/NO; for cytotoxicity at 10 µM: Homo sapiens, WI-38
[2] = system: human dermal fibroblast (HDF) primary cells; assay: H2O2-resistance in primary human dermal fibroblasts; assay type: cell-based; conditions: for fold induction at 10 µM: Homo sapiens; for Assay 6: H2O2-resistant, at 10 uM, human dermal fibroblast (HDF) primary cells: YES/NO
FOXO3 = assay: qPCR analysis of FOXO3-regulated genes; assay type: cell-based, human; conditions: for fold induction at 10 µM: Homo sapiens; for K = Sestrin induction: score
How it was run: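 FOXO3 target-gene expression quantified by qPCR normalised to B2M, PPIA and GAPDH, in WI-38 cells after 24 h exposure to 10 μM compound. Some runs used cells first transfected 36 h with 10 nM FOXO3 or NRF2 siRNA and replated ~24 h before dosing.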

[3] = Summary score for characterization of 38 core set hits; conditions: for D = Triple resistant: 2-point score, multiplex resistance (cadmium, MMS, H2O2); for C = H2O2- & Cd-resistant: score, resistance to both H2O2 and cadmium
Procedure: 38 “core set” small molecules are listed and are assigned a score, based on the result for each individual characterization. From our small molecule screen for H2O2-resistance, we isolated 61 top hits. […] Specifically, a 2-point score was assigned to the most well-known and prominent longevity-related phenotypes, such as multiplex resistance, activation of FOXO3 and/or NRF2, and down-regulation of mTOR. Small molecules were also analyzed for their ability to extend C. elegans' lifespan in 4 to 6 independent trials, and the lifespan score scale is from 0 to 2: 0 for no obvious effects, 1 for lifespan extension observed in 2 trials, 2 for observed in more than 2 trials. Certain molecules appeared to have DNA-damaging effects and/or potential cell-toxicity in cultured human cells, and they receive a negative point.

C. elegans = assay type: in vivo, Caenorhabditis elegans
Procedure: The worms were treated with the small molecules in liquid, with H2O2 (500 μM final concentration) added on day 4 of adulthood, and scored for viability everyday
FUdR was used to block progeny production. The molecules were analyzed in 96-well plates, with 4 wells for each small molecule. Multiple control wells with DMSO (0.2% final concentration) were included. […] Day 1 adults were transferred onto mini-plates, seeded with OP50 bacteria (UV-irradiated, kanamycin-treated) and supplemented with small molecules (˜60 μM final concentration, 0.2% DMSO). Worms were scored every other day. Cumulative survival was analyzed using the STATA software (log-rank test). […] The worms were treated with the small molecules in liquid, with H2O2 (500 μM final concentration) added on day 4 of adulthood, and scored for viability every day.

WI-38 cells [4] = conditions: for No H2O2 stress treatment, at 10 uM (fold change): normalized ATP measurement; for Assay 1: H2O2-resistant: YES/NO, if NO, possibly due to repeated freezing/thawing of stocks
[5] = H2O2 3 hrs, 10 uM, n = 6, negative control 5.44% ± 0.79%, read-out: Percentage of propidium iodide-positive dead cells (under H2O2 stress treatment), 3 hrs
[6] = H2O2 4 hrs, 10 uM, n = 6, negative control 16.81% ± 1.42%, read-out: Percentage of propidium iodide-positive dead cells (under H2O2 stress treatment), 4 hrs
[7] = H2O2 5 hrs, 10 uM, n = 6, negative control 22.50% ± 1.53%, read-out: Percentage of propidium iodide-positive dead cells (under H2O2 stress treatment), 5 hrs
[8] = pre-treatment at 10 uM, 3.5 hours of H2O2, DMSO control 27.4% ± 6.5%, */**/*** = reduced by one/two/three standard deviations, read-out: Percentage of propidium iodide-positive dead cells (under H2O2 stress treatment), at 10 uM
[9] = Experiment 1, HDF cells, read-out: Experiment 1, HDF cells (under H2O2 stress treatment), at 10 uM (fold change)
[10] = Experiment 2, HDF cells, read-out: Experiment 2, HDF cells (under H2O2 stress treatment), at 10 uM (fold change)
[11] = 24 h, Assay 10(m), at 10 uM, qPCR, read-out: Induction of FOXO3-regulated genes: GADD45A normalized fold-change
[12] = 24 h, Assay 10(m), at 10 uM, qPCR, read-out: Induction of FOXO3-regulated genes: TXNIP normalized fold-change
[13] = 10 μM, 24 hrs, WI-38 cells, qPCR, normalized to B2M, n = 4, read-out: GADD45A expression, normalized fold change (FOXO3-regulated gene)
[14] = 10 μM, 24 hrs, WI-38 cells, qPCR, normalized to B2M, n = 4, read-out: TXNIP expression, normalized fold change (FOXO3-regulated gene)
[15] = WI-38 cells, 10 μM, 24 hrs, n=4, qPCR normalized by B2M, read-out: DDB1 Normalized fold change
[16] = WI-38 cells, 10 μM, 24 hrs, n=4, qPCR normalized by B2M, read-out: GADD45A Normalized fold change
[17] = WI-38 cells, 10 μM, 24 hrs, n=4, qPCR normalized by B2M, read-out: SESN1 Normalized fold change
[18] = fold change, qPCR, WI-38 cells, 10 μM, 24 hrs, read-out: Summary of effects on FOXO3-regulated genes: GADD45A
[19] = fold change, qPCR, WI-38 cells, 10 μM, 24 hrs, read-out: Summary of effects on FOXO3-regulated genes: TXNIP
[20] = qPCR, WI-38 cells, 10 μM, n=4, 24 hrs, normalized by B2M, read-out: CAT Normalized fold change
[21] = qPCR, WI-38 cells, 10 μM, n=4, 24 hrs, normalized by B2M, read-out: SOD2 Normalized fold change
[22] = qPCR, WI-38 cells, 10 μM, n=4, 24 hrs, normalized by B2M, read-out: TXNIP Normalized fold change
[23] = WI-38 cells, 10 μM, (*) = compromised ability to protect cells from H2O2, could be due to stability issue
[24] = asterisks indicate the loss of the ability to protect cells from H2O2 over time
[25] = derived from dose response curves, 0.6-20 uM, H2O2-resistance of WI-38 cells
[26] = read-out: Est. ED50, dose response 0.6-20 μM, H2O2-resistance

Compound | Assay 7: H2O2-resistant, at 10 uM, validated by propidium iodide (PI) cell-death imaging (WI-38 cells [1]; 10 uM) | cytotoxicity at 10 µM (WI-38 cells [1]; [5]) [%] | cytotoxicity at 10 µM (WI-38 cells [1]; [6]) [%] | cytotoxicity at 10 µM (WI-38 cells [1]; [8]) [%] | fold induction at 10 µM [2, 9] | fold induction at 10 µM [2, 10] | Assay 6: H2O2-resistant, at 10 uM, human dermal fibroblast (HDF) primary cells [2] | E = Potential FOXO3 Activation (FOXO3; 2-point score) | fold induction at 10 µM (FOXO3; [15]) | fold induction at 10 µM (FOXO3; [16]) | fold induction at 10 µM (FOXO3; [17]) | fold induction at 10 µM (FOXO3; [20]) | K = Sestrin induction (FOXO3) | E = Potential FOXO3 Activation (FOXO3; summary score) | D = Triple resistant [3] | C = H2O2- & Cd-resistant [3] | H2O2-resistant (WI-38 cells [4]; [23]) | H2O2-resistant (WI-38 cells [4]; [24]) | EC50 (WI-38 cells [4]; [25]) [µM] | EC50 (WI-38 cells [4]; [26]) [µM] | other results
O=C(NCc1cccnc1)/C(=C\c1cccc(Oc2ccccc2)c1)S(=O)(=O)c1ccccc1 [Gr-7A] | YES | 2.78 | 2.32 | 9.9 | 1.2 | 4.11 | YES | 2 | 0.979 | 1.91 | 1.14 | 1.15 | 0 | 2 | 0 | 0 | YES (*) | YES (*) | 16.1 | 58.4 | cytotoxicity at 10 µM (WI-38 cells [1]; [7]): 3.52%; SOD2 expression, normalized fold change (FOXO3-regulated gene) (FOXO3; 10 μM, 24 hrs, WI-38 cells, qPCR, normalized to B2M, n = 4): SOD2 1.78, fold; Potential FOXO3 Activation (>=2 target genes induced, by >=1.5-fold) (FOXO3; Assay 11(n)): YES; fold induction at 10 µM (FOXO3; [11]): 1.91; fold induction at 10 µM (FOXO3; 24 h, Assay 10(m), at 10 uM, qPCR, read-out: Induction of FOXO3-regulated genes: SOD2 normalized fold-change): 1.78; fold induction at 10 µM (FOXO3; [12]): 0.12; fold induction at 10 µM (FOXO3; [13]): 1.91; fold induction at 10 µM (FOXO3; [14]): 0.12; fold induction at 10 µM (FOXO3; [18]): 1.91; fold induction at 10 µM (FOXO3; [19]): 0.12; fold induction at 10 µM (FOXO3; [21]): 1.78; fold induction at 10 µM (FOXO3; [22]): 0.12; Summary of effects on FOXO3-regulated genes: SOD2 (FOXO3; fold change, qPCR, WI-38 cells, 10 μM, 24 hrs): SOD2 1.78,; S = Sum of Negative scores ([3]; human): 1; H2O2-resistance assay, 1st experiment (C. elegans; in vivo): YES;; L = H2O2-resistance in worms (C. elegans; in vivo): 1; N = H2O2-resistance in woms (C. elegans; in vivo): 1; Protection of C. elegans from hydrogen peroxide (C. elegans; in vivo): could protect C. elegans from hydrogen peroxide; No H2O2 stress treatment, at 10 uM (fold change) (WI-38 cells [4]; WI-38 cells): 0.78 fold change; Assay 1: H2O2-resistant (WI-38 cells [4]): YES
Cc1cc(C)c(C(=O)/C=C/c2ccccc2F)c(O)n1 [O18] | YES | 3.66 | 3.06 | 4.5 | 72.5 | 1.27 | – | 0 | 1.33 | 0.861 | 1.06 | 1.47 | 0 | 0 | 0 | 0 | YES | YES | 9.8 | 9.8 | cytotoxicity at 10 µM (WI-38 cells [1]; [7]): 4.16%; fold induction at 10 µM (FOXO3; [12]): 0.3; fold induction at 10 µM (FOXO3; [14]): 0.3; fold induction at 10 µM (FOXO3; [19]): 0.3; fold induction at 10 µM (FOXO3; [21]): 1.04; fold induction at 10 µM (FOXO3; [22]): 0.297; S = Sum of Negative scores ([3]; human): 0; L = H2O2-resistance in worms (C. elegans; in vivo): 0; N = H2O2-resistance in woms (C. elegans; in vivo): 0; No H2O2 stress treatment, at 10 uM (fold change) (WI-38 cells [4]; WI-38 cells): 0.99 fold change; Assay 1: H2O2-resistant (WI-38 cells [4]): YES
[O-][n+]1onc2c3nsnc3c(Br)cc21 [O17] | YES | 0.8 | 2.83 | 6.6 | 3.35 | 48.5 | YES | 0 | 1.04 | 0.846 | 1.11 | 1.11 | 0 | 0 | 0 | 0 | YES | YES | 8.5 | 8.5 | fold induction at 10 µM (FOXO3; [11]): 0.85; fold induction at 10 µM (FOXO3; [13]): 0.85; fold induction at 10 µM (FOXO3; [18]): 0.85; fold induction at 10 µM (FOXO3; [21]): 0.997; fold induction at 10 µM (FOXO3; [22]): 0.801; S = Sum of Negative scores ([3]; human): 0; H2O2-resistance assay, 1st experiment (C. elegans; in vivo): YES;; H2O2-resistance assay, 2nd experiment (C. elegans; in vivo): YES.; L = H2O2-resistance in worms (C. elegans; in vivo): 1; N = H2O2-resistance in woms (C. elegans; in vivo): 1; Protection of C. elegans from hydrogen peroxide (C. elegans; in vivo): could protect C. elegans from hydrogen peroxide; No H2O2 stress treatment, at 10 uM (fold change) (WI-38 cells [4]; WI-38 cells): 1.06 fold change
COc1ccc(C(=O)/C=C/c2ccccc2Br)c(OC)c1 [Gr-4B] | YES | 3.31 | – | 3.4 | 13.7 | 55.6 | YES | 0 | 1.06 | 0.61 | 0.992 | 1.18 | 0 | 0 | 0 | 1 | YES | YES | 8.9 | 5.33 | fold induction at 10 µM (FOXO3; [21]): 1.04; fold induction at 10 µM (FOXO3; [22]): 0.792; S = Sum of Negative scores ([3]; sum of columns Q and R): 0; N = H2O2-resistance in woms (C. elegans; score): 0; L = H2O2-resistance in worms (C. elegans; summary score): 0; No H2O2 stress treatment, at 10 uM (fold change) (WI-38 cells [4]; WI-38 cells): 1.18 fold change; Assay 1: H2O2-resistant (WI-38 cells [4]): YES
Oc1ccccc1-c1noc(-c2ccccc2O)n1 [O27] | YES | 0.55 | 0.82 | 0.5 | – | – | YES | 0 | – | – | – | – | 1 | 0 | 0 | 1 | YES | YES | 12.7 | 12.7 | cytotoxicity at 10 µM (WI-38 cells [1]; [7]): 1.07%; S = Sum of Negative scores ([3]; human): 2; Assay 1: H2O2-resistant (WI-38 cells [4]): YES
